Tested on: PABPC1 PABC
Format: binding, human
Conditions: DMS-BM library, bait PABPC1 PABC, row aa = residue at this position; for DMS-derived PSSM value (averaged), position R12 / DMS-derived PSSM value, position R14: R = wild type
[1] = prey ATXN2, TLNPNAKEFNPRSF(averaged) over the two overlapping peptides, L = wild type
[2] = prey ATXN2, peptide KSTLNPNAKEFNPRSF, N = wild type
[3] = prey ATXN2, TLNPNAKEFNPRSF(averaged) over the two overlapping peptides
[4] = prey ATXN2, peptide KSTLNPNAKEFNPRSF, S = wild type
[5] = prey ATXN2, peptide KSTLNPNAKEFNPRSF
[6] = prey ATXN2, TLNPNAKEFNPRSF(averaged) over the two overlapping peptides, P = wild type
[7] = prey ATXN2, peptide KSTLNPNAKEFNPRSF, F = wild type
[8] = prey ATXN2, peptide TLNPNAKEFNPRSFSQ, P = wild type
[9] = prey ATXN2, peptide KSTLNPNAKEFNPRSF, P = wild type
[10] = prey ATXN2, peptide KSTLNPNAKEFNPRSF, L = wild type
[11] = prey ATXN2, peptide TLNPNAKEFNPRSFSQ, F = wild type
[12] = prey ATXN2, peptide TLNPNAKEFNPRSFSQ, N = wild type
[13] = prey ATXN2, peptide TLNPNAKEFNPRSFSQ, K = wild type
[14] = prey ATXN2, TLNPNAKEFNPRSF(averaged) over the two overlapping peptides, N = wild type
[15] = prey ATXN2, peptide TLNPNAKEFNPRSFSQ, E = wild type
[16] = prey ATXN2, TLNPNAKEFNPRSF(averaged) over the two overlapping peptides, K = wild type
[17] = prey ATXN2, TLNPNAKEFNPRSF(averaged) over the two overlapping peptides, S = wild type
[18] = prey ATXN2, TLNPNAKEFNPRSF(averaged) over the two overlapping peptides, F = wild type

For “TLNPNAKEFNPRSF(averaged) L2S (TSNPNAKEFNPRSF)”, the “DMS-derived PSSM value (averaged), position L2” value [1] was 0.

In the case of KSTLNPNAKEFNPRSF N5W (KSTLWPNAKEFNPRSF), the “DMS-derived PSSM value, position N5” value [2] was 0.

For “TLNPNAKEFNPRSF(averaged) R12Y (TLNPNAKEFNPYSF)”, the “DMS-derived PSSM value (averaged), position R12” value [3] was 0.04827.

“TLNPNAKEFNPRSF(averaged) E8Q (TLNPNAKQFNPRSF)” was tested, and the “DMS-derived PSSM value (averaged), position E8” value (prey ATXN2, TLNPNAKEFNPRSF(averaged) over the two overlapping peptides, E = wild type) was 0.02477.

“KSTLNPNAKEFNPRSF S15I (KSTLNPNAKEFNPRIF)” was tested, and the “DMS-derived PSSM value, position S15” value [4] was 0.03802.

With “KSTLNPNAKEFNPRSF R14N (KSTLNPNAKEFNPNSF)” the “DMS-derived PSSM value, position R14” value [5] was 0.007229.

In the case of “KSTLNPNAKEFNPRSF R14D (KSTLNPNAKEFNPDSF)”, the “DMS-derived PSSM value, position R14” value [5] was 0.

“TLNPNAKEFNPRSF(averaged) P11G (TLNPNAKEFNGRSF)” was tested, and the “DMS-derived PSSM value (averaged), position P11” value [6] was 0.05139.

“KSTLNPNAKEFNPRSF F16W (KSTLNPNAKEFNPRSW)” was tested, and the “DMS-derived PSSM value, position F16” value [7] was 0.01686.

In the case of KSTLNPNAKEFNPRSF K9P (KSTLNPNAPEFNPRSF), the “DMS-derived PSSM value, position K9” value (prey ATXN2, peptide KSTLNPNAKEFNPRSF, K = wild type) was 0.004179.

For “TLNPNAKEFNPRSFSQ P11T (TLNPNAKEFNTRSFSQ)”, the “DMS-derived PSSM value, position P11” value [8] was 0.2817.

With “TLNPNAKEFNPRSF(averaged) P4W (TLNWNAKEFNPRSF)” the “DMS-derived PSSM value (averaged), position P4” value [6] was 0.

“KSTLNPNAKEFNPRSF P13K (KSTLNPNAKEFNKRSF)” was tested, and the “DMS-derived PSSM value, position P13” value [9] was 0.

For KSTLNPNAKEFNPRSF L4D (KSTDNPNAKEFNPRSF), the “DMS-derived PSSM value, position L4” value [10] was 0.

With “TLNPNAKEFNPRSFSQ F14P (TLNPNAKEFNPRSPSQ)” the “DMS-derived PSSM value, position F14” value [11] was 0.06984.

With TLNPNAKEFNPRSFSQ N3L (TLLPNAKEFNPRSFSQ) the “DMS-derived PSSM value, position N3” value [12] was 0.

For TLNPNAKEFNPRSFSQ K7H (TLNPNAHEFNPRSFSQ), the “DMS-derived PSSM value, position K7” value [13] was 0.02911.

In the case of TLNPNAKEFNPRSFSQ L2E (TENPNAKEFNPRSFSQ), the “DMS-derived PSSM value, position L2” value (prey ATXN2, peptide TLNPNAKEFNPRSFSQ, L = wild type) was 0.08907.

In the case of KSTLNPNAKEFNPRSF N7L (KSTLNPLAKEFNPRSF), the “DMS-derived PSSM value, position N7” value [2] was 0.04259.

With TLNPNAKEFNPRSFSQ F9D (TLNPNAKEDNPRSFSQ) the “DMS-derived PSSM value, position F9” value [11] was 0.002637.

“TLNPNAKEFNPRSF(averaged) N5P (TLNPPAKEFNPRSF)” was tested, and the “DMS-derived PSSM value (averaged), position N5” value [14] was 4.119e-5.

For “TLNPNAKEFNPRSF(averaged) R12Q (TLNPNAKEFNPQSF)”, the “DMS-derived PSSM value (averaged), position R12” value [3] was 0.05602.

For “KSTLNPNAKEFNPRSF F11E (KSTLNPNAKEENPRSF)”, the “DMS-derived PSSM value, position F11” value [7] was 0.

“TLNPNAKEFNPRSF(averaged) P11N (TLNPNAKEFNNRSF)” was tested, and the “DMS-derived PSSM value (averaged), position P11” value [6] was 0.02352.

With “TLNPNAKEFNPRSF(averaged) T1A (ALNPNAKEFNPRSF)” the “DMS-derived PSSM value (averaged), position T1” value (prey ATXN2, TLNPNAKEFNPRSF(averaged) over the two overlapping peptides, T = wild type) was 0.03742.

In the case of TLNPNAKEFNPRSFSQ E8F (TLNPNAKFFNPRSFSQ), the “DMS-derived PSSM value, position E8” value [15] was 0.

For “TLNPNAKEFNPRSF(averaged) R12F (TLNPNAKEFNPFSF)”, the “DMS-derived PSSM value (averaged), position R12” value [3] was 0.0319.

In the case of KSTLNPNAKEFNPRSF T3A (KSALNPNAKEFNPRSF), the “DMS-derived PSSM value, position T3” value (prey ATXN2, peptide KSTLNPNAKEFNPRSF, T = wild type) was 0.04081.

For KSTLNPNAKEFNPRSF N5M (KSTLMPNAKEFNPRSF), the “DMS-derived PSSM value, position N5” value [2] was 0.

With “TLNPNAKEFNPRSF(averaged) R12V (TLNPNAKEFNPVSF)” the “DMS-derived PSSM value (averaged), position R12” value [3] was 0.08681.

“TLNPNAKEFNPRSF(averaged) K7P (TLNPNAPEFNPRSF)” was tested, and the “DMS-derived PSSM value (averaged), position K7” value [16] was 0.005399.

For “TLNPNAKEFNPRSF(averaged) K7Q (TLNPNAQEFNPRSF)”, the “DMS-derived PSSM value (averaged), position K7” value [16] was 0.01764.

KSTLNPNAKEFNPRSF S2I (KITLNPNAKEFNPRSF) was tested, and the “DMS-derived PSSM value, position S2” value [4] was 0.01393.

“KSTLNPNAKEFNPRSF E10F (KSTLNPNAKFFNPRSF)” was tested, and the “DMS-derived PSSM value, position E10” value (prey ATXN2, peptide KSTLNPNAKEFNPRSF, E = wild type) was 0.

“TLNPNAKEFNPRSF(averaged) A6T (TLNPNTKEFNPRSF)” was tested, and the “DMS-derived PSSM value (averaged), position A6” value (prey ATXN2, TLNPNAKEFNPRSF(averaged) over the two overlapping peptides, A = wild type) was 0.133.

In the case of “TLNPNAKEFNPRSF(averaged) P4F (TLNFNAKEFNPRSF)”, the “DMS-derived PSSM value (averaged), position P4” value [6] was 0.005863.

For “TLNPNAKEFNPRSFSQ F14D (TLNPNAKEFNPRSDSQ)”, the “DMS-derived PSSM value, position F14” value [11] was 0.0175.

KSTLNPNAKEFNPRSF P6V (KSTLNVNAKEFNPRSF) was tested, and the “DMS-derived PSSM value, position P6” value [9] was 0.3743.

For “TLNPNAKEFNPRSF(averaged) P4K (TLNKNAKEFNPRSF)”, the “DMS-derived PSSM value (averaged), position P4” value [6] was 0.

TLNPNAKEFNPRSFSQ K7S (TLNPNASEFNPRSFSQ) was tested, and the “DMS-derived PSSM value, position K7” value [13] was 0.01353.

In the case of “KSTLNPNAKEFNPRSF P13L (KSTLNPNAKEFNLRSF)”, the “DMS-derived PSSM value, position P13” value [9] was 0.006424.

TLNPNAKEFNPRSFSQ E8M (TLNPNAKMFNPRSFSQ) was tested, and the “DMS-derived PSSM value, position E8” value [15] was 0.03925.

With “TLNPNAKEFNPRSF(averaged) N3T (TLTPNAKEFNPRSF)” the “DMS-derived PSSM value (averaged), position N3” value [14] was 0.009966.

With “TLNPNAKEFNPRSFSQ F14M (TLNPNAKEFNPRSMSQ)” the “DMS-derived PSSM value, position F14” value [11] was 0.2558.

With TLNPNAKEFNPRSFSQ P4M (TLNMNAKEFNPRSFSQ) the “DMS-derived PSSM value, position P4” value [8] was 0.001164.

“TLNPNAKEFNPRSFSQ N10E (TLNPNAKEFEPRSFSQ)” was tested, and the “DMS-derived PSSM value, position N10” value [12] was 0.00197.

For “TLNPNAKEFNPRSF(averaged) S13F (TLNPNAKEFNPRFF)”, the “DMS-derived PSSM value (averaged), position S13” value [17] was 0.01382.

“TLNPNAKEFNPRSF(averaged) S13H (TLNPNAKEFNPRHF)” was tested, and the “DMS-derived PSSM value (averaged), position S13” value [17] was 0.06517.

With “KSTLNPNAKEFNPRSF S15L (KSTLNPNAKEFNPRLF)” the “DMS-derived PSSM value, position S15” value [4] was 0.4164.

“TLNPNAKEFNPRSF(averaged) P4E (TLNENAKEFNPRSF)” was tested, and the “DMS-derived PSSM value (averaged), position P4” value [6] was 0.0008442.

In the case of TLNPNAKEFNPRSFSQ N3E (TLEPNAKEFNPRSFSQ), the “DMS-derived PSSM value, position N3” value [12] was 0.

With TLNPNAKEFNPRSFSQ E8A (TLNPNAKAFNPRSFSQ) the “DMS-derived PSSM value, position E8” value [15] was 0.02248.

In the case of “TLNPNAKEFNPRSF(averaged) F14H (TLNPNAKEFNPRSH)”, the “DMS-derived PSSM value (averaged), position F14” value [18] was 0.06346.

For “KSTLNPNAKEFNPRSF R14L (KSTLNPNAKEFNPLSF)”, the “DMS-derived PSSM value, position R14” value [5] was 0.02501.

For TLNPNAKEFNPRSFSQ N3K (TLKPNAKEFNPRSFSQ), the “DMS-derived PSSM value, position N3” value [12] was 0.

For “TLNPNAKEFNPRSF(averaged) P11M (TLNPNAKEFNMRSF)”, the “DMS-derived PSSM value (averaged), position P11” value [6] was 0.00553.

“TLNPNAKEFNPRSFSQ P11L (TLNPNAKEFNLRSFSQ)” was tested, and the “DMS-derived PSSM value, position P11” value [8] was 0.02416.

In the case of TLNPNAKEFNPRSFSQ N3W (TLWPNAKEFNPRSFSQ), the “DMS-derived PSSM value, position N3” value [12] was 0.

In the case of KSTLNPNAKEFNPRSF L4E (KSTENPNAKEFNPRSF), the “DMS-derived PSSM value, position L4” value [10] was 0.

With “TLNPNAKEFNPRSF(averaged) F14E (TLNPNAKEFNPRSE)” the “DMS-derived PSSM value (averaged), position F14” value [18] was 0.01777.

With “TLNPNAKEFNPRSF(averaged) L2D (TDNPNAKEFNPRSF)” the “DMS-derived PSSM value (averaged), position L2” value [1] was 0.

Reference: paper PMC12102759 (Protein Science : A Publication of the Protein Society, 2025)
